In patent publication US20260201008A1, “SECRETIN-DERIVED GLP1R SELECTIVE AGONISTS” (GUBRA A/S, priority 2023, published 2026):
Where two headings read alike, the source gives them in different places. Numbered stars: 1 amine (or outer) side, 2 acyl side, 3 side chain; on linkers, the order of the positions; unused ones are H or OH. Square brackets hold non-standard residues; d marks the D form. Side chains are listed from the residue outwards. Peptide text beside a SMILES is read from it. * marks the point of attachment. C20 diacid = O=C(O)CCCCCCCCCCCCCCCCCCC(=O)*; γGlu = O=C(O)[C@H](CCC(=O)[*:2])N[*:1]; AEEA = NCCOCCOCC(=O)O; Aib = CC(C)(N)C(=O)O

What was measured:
SCTR = SCTR (Homo sapiens, UniProt P47872); assay: hSCTR potency, cAMP accumulation in CHO-K1 cells stably overexpressing hSCTR; format: cell-based; design: alternatively Euroscreen ES-712-AF; FAST-0161L; host or cells: CHO-K1; settings: cAMP accumulation, CHO-K1 cells overexpressing hSCTR
SCTR, sequence (P47872 23-440): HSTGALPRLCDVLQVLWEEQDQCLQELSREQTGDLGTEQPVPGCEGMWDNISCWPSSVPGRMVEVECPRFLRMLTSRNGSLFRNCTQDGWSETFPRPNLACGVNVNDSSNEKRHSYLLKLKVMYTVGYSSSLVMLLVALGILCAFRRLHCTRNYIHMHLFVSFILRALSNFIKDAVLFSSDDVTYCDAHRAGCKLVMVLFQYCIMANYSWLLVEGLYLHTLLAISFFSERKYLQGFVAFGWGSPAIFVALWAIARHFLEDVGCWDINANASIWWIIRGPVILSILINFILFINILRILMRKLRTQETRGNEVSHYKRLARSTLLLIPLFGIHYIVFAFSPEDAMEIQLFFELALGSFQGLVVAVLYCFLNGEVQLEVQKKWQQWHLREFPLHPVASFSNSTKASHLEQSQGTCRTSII
Outline: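 Thawed CHO-K1 cells carrying stable hSCTR are plated into casein/IBMX buffer (0.05%, 0.5 mM), dosed immediately for 30 min at room temperature, then cAMP is detected by TR-FRET. Purified peptides run as 11 three-fold dilutions in duplicate, and curves are fitted with variable slope.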

GLP1R = GLP1R (Homo sapiens, UniProt P43220); assay: hGLP1R potency, cAMP accumulation in CHO-K1 cells stably overexpressing hGLP1R; format: cell-based; design: host or cells: CHO-K1; settings: for Selectivity: SCTR EC50/GLP1R EC50 ratio; for EC50: cAMP accumulation, CHO-K1 cells overexpressing hGLP1R; for SCTR EC50/GLP1R EC50 ratio: selectivity for hGLP1R over hSCTR, cAMP accumulation in CHO-K1 cells
GLP1R, sequence (P43220 24-463): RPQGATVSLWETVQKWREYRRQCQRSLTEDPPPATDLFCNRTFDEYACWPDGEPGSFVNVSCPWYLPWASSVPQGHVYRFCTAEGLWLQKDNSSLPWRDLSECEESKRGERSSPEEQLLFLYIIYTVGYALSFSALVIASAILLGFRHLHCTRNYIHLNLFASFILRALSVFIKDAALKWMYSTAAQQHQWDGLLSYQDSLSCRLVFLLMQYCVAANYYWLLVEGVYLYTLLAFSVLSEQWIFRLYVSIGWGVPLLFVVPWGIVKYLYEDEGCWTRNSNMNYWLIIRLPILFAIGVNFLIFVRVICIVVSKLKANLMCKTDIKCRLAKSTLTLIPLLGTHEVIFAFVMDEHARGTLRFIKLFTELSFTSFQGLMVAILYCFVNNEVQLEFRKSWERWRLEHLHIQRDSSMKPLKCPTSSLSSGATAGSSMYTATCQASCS
Outline: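 2000 cells/well, DPBS + 0.05% casein + 0.5 mM IBMX; 30 min RT stimulation; HTRF cAMP detection after 1 h. Purified: 3-fold ×11, n=2; crude: 10-fold ×5, n=1. EC50 by variable-slope fit.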

[1] = Fibril formation of crude library peptides (Thioflavin T); format: physicochemical; design: key: average ThT fluorescence emission at 480 nm (ex 450 nm), raw units; settings: Physical stability of peptides
Outline: (§1)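 Turbidity is the absorbance at 600 nm, taken before heating. Fibril signal is the mean ThT emission at 480 nm (450 nm excitation), read every 10 min over 72 h at 40° C with 700 rpm shaking between reads. Peptides at 267 μM, pH 4.0 acetate or pH 7.0 phosphate buffer (50 mM), 4 μM ThT final.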

[2] = Turbidity of crude library peptides (absorbance at 600 nm); format: physicochemical; settings: Physical stability of peptides
Outline: as §1

[3] = read-out: pEC50 hSCTR (converted)
[4] = read-out: pEC50 hGLPR1 (converted)
[5] = read-out: hSCTR pEC50 (converted)
[6] = read-out: hGLP1R pEC50 (converted)

Compound | EC50 (SCTR; [3]) [nM] | Selectivity (GLP1R) | EC50 (GLP1R; [4]) [nM] | Fibril formation [1] | Turbidity (pH 7) [2] | EC50 (SCTR; [5]) [nM] | EC50 (GLP1R; [6]) [nM] | SCTR EC50/GLP1R EC50 ratio (GLP1R)
CC(C)C[C@H](NC(=O)[C@H](Cc1ccccc1)NC(=O)[C@H](CCCNC(=N)N)NC(=O)[C@H](CCC(N)=O)NC(=O)C(C)(C)NC(=O)[C@H](C)NC(=O)[C@H](C)NC(=O)[C@H](Cc1ccccc1)NC(=O)[C@H](CCC(=O)O)NC(=O)[C@H](CCCCNC(=O)COCCOCCNC(=O)COCCOCCNC(=O)CC[C@H](NC(=O)CCCCCCCCCCCCCCCCCCC(=O)O)C(=O)O)NC(=O)[C@H](CC(C)C)NC(=O)[C@H](Cc1ccccc1)NC(=O)[C@H](CO)NC(=O)[C@@H](NC(=O)[C@H](CC(=O)O)NC(=O)[C@H](CO)NC(=O)[C@@H](NC(=O)[C@H](Cc1ccccc1)NC(=O)[C@@H](NC(=O)CNC(=O)[C@H](CCC(=O)O)NC(=O)C(C)(C)NC(=O)[C@@H](N)Cc1c[nH]cn1)[C@@H](C)O)[C@@H](C)O)C(C)C)C(=O)N[C@@H](CCC(=O)O)C(=O)N[C@@H](Cc1c[nH]cn1)C(=O)N[C@@H](CC(C)C)C(=O)N[C@H](C(N)=O)C(C)C [compound 27] (H-H[Aib]EGTFTSDVSFLK([AEEA-AEEA-γGlu-C20 diacid])EFAA[Aib]QRFLEHLV-NH2) | 3160 | 33159 | 0.1 | 16757 | 0.09 | – | – | –
CC(C)C[C@H](NC(=O)[C@H](C)NC(=O)[C@H](C)NC(=O)[C@H](CCC(=O)O)NC(=O)[C@H](CCC(=O)O)NC(=O)[C@H](CCCCNC(=O)COCCOCCNC(=O)COCCOCCNC(=O)CC[C@H](NC(=O)CCCCCCCCCCCCCCCCCCC(=O)O)C(=O)O)NC(=O)[C@H](CC(C)C)NC(=O)[C@H](Cc1ccc(O)cc1)NC(=O)[C@H](CO)NC(=O)[C@@H](NC(=O)[C@H](CC(=O)O)NC(=O)[C@H](CO)NC(=O)[C@@H](NC(=O)[C@H](Cc1ccccc1)NC(=O)[C@@H](NC(=O)CNC(=O)[C@H](CCC(=O)O)NC(=O)C(C)(C)NC(=O)[C@@H](N)Cc1c[nH]cn1)[C@@H](C)O)[C@@H](C)O)C(C)C)C(=O)N[C@@H](CCC(N)=O)C(=O)N[C@@H](CCCNC(=N)N)C(=O)N[C@@H](Cc1ccccc1)C(=O)N[C@@H](CC(C)C)C(=O)N[C@@H](CCC(=O)O)C(=O)N[C@@H](Cc1c[nH]cn1)C(=O)N[C@@H](CC(C)C)C(=O)N[C@H](C(N)=O)C(C)C [compound 137] (H-H[Aib]EGTFTSDVSYLK([AEEA-AEEA-γGlu-C20 diacid])EEAALQRFLEHLV-NH2) | – | – | – | 4019 | 0.09 | 79.4 | 0.00794 | 9970
CC[C@H](C)[C@H](NC(=O)[C@H](Cc1ccccc1)NC(=O)[C@H](CCCNC(=N)N)NC(=O)[C@H](CCC(N)=O)NC(=O)[C@H](CC(C)C)NC(=O)[C@H](C)NC(=O)[C@H](C)NC(=O)CNC(=O)[C@H](CCC(=O)O)NC(=O)[C@H](CC(C)C)NC(=O)[C@H](CC(C)C)NC(=O)[C@H](Cc1c[nH]c2ccccc12)NC(=O)[C@H](CO)NC(=O)[C@@H]1CCCN1C(=O)[C@H](CC(=O)O)NC(=O)[C@H](CO)NC(=O)[C@@H](NC(=O)[C@H](Cc1ccccc1)NC(=O)[C@@H](NC(=O)CNC(=O)[C@H](CCC(=O)O)NC(=O)C(C)(C)NC(=O)[C@@H](N)Cc1c[nH]cn1)[C@@H](C)O)[C@@H](C)O)C(=O)N[C@@H](CCC(N)=O)C(=O)N[C@@H](Cc1c[nH]c2ccccc12)C(=O)N[C@@H](CC(C)C)C(=O)N[C@H](C(N)=O)C(C)C [compound 127] (H-H[Aib]EGTFTSDPSWLLEGAALQRFIQWLV-NH2) | – | – | – | 11084 | 0.19 | 3980 | 7.94 | 464

Further lines, results first:

EC50 (SCTR; [3]) [nM] | Selectivity (GLP1R) | EC50 (GLP1R; [4]) [nM] | Fibril formation [1] | Turbidity (pH 7) [2] | EC50 (SCTR; [5]) [nM] | EC50 (GLP1R; [6]) [nM] | SCTR EC50/GLP1R EC50 ratio (GLP1R) | Compound
6310 | 144477 | 0.0398 | 10417 | 0.08 | – | – | – | CC(C)C[C@H](NC(=O)[C@H](Cc1ccccc1)NC(=O)[C@H](CCCNC(=N)N)NC(=O)[C@H](CCC(N)=O)NC(=O)[C@H](CCC(=O)O)NC(=O)[C@H](C)NC(=O)[C@H](C)NC(=O)[C@H](Cc1ccccc1)NC(=O)[C@H](CCC(=O)O)NC(=O)[C@H](CCCCNC(=O)COCCOCCNC(=O)COCCOCCNC(=O)CC[C@H](NC(=O)CCCCCCCCCCCCCCCCCCC(=O)O)C(=O)O)NC(=O)[C@H](CC(C)C)NC(=O)[C@H](CCC(=O)O)NC(=O)[C@H](CO)NC(=O)[C@@H](NC(=O)[C@H](CC(=O)O)NC(=O)[C@H](CO)NC(=O)[C@@H](NC(=O)[C@H](Cc1ccccc1)NC(=O)[C@@H](NC(=O)CNC(=O)[C@H](CCC(=O)O)NC(=O)C(C)(C)NC(=O)[C@@H](N)Cc1c[nH]cn1)[C@@H](C)O)[C@@H](C)O)C(C)C)C(=O)N[C@@H](CCC(=O)O)C(=O)N[C@@H](Cc1c[nH]cn1)C(=O)N[C@@H](CC(C)C)C(=O)N[C@H](C(N)=O)C(C)C [compound 31] (H-H[Aib]EGTFTSDVSELK([AEEA-AEEA-γGlu-C20 diacid])EFAAEQRFLEHLV-NH2)
– | – | – | 3560 | 0.08 | 5010 | 6.31 | 804 | CC[C@H](C)[C@H](NC(=O)[C@H](Cc1ccccc1)NC(=O)[C@H](CCCNC(=N)N)NC(=O)[C@H](CCC(N)=O)NC(=O)[C@H](CC(C)C)NC(=O)[C@H](C)NC(=O)[C@H](C)NC(=O)CNC(=O)[C@H](CCC(=O)O)NC(=O)[C@H](CC(C)C)NC(=O)[C@H](CC(C)C)NC(=O)[C@H](CCC(=O)O)NC(=O)[C@H](CO)NC(=O)[C@@H]1CCCN1C(=O)[C@H](CC(=O)O)NC(=O)[C@H](CO)NC(=O)[C@@H](NC(=O)[C@H](Cc1ccccc1)NC(=O)[C@@H](NC(=O)CNC(=O)[C@H](CCC(=O)O)NC(=O)C(C)(C)NC(=O)[C@@H](N)Cc1c[nH]cn1)[C@@H](C)O)[C@@H](C)O)C(=O)N[C@@H](CCC(N)=O)C(=O)N[C@@H](Cc1c[nH]c2ccccc12)C(=O)N[C@@H](CC(C)C)C(=O)N[C@H](C(N)=O)C(C)C [compound 122] (H-H[Aib]EGTFTSDPSELLEGAALQRFIQWLV-NH2)
– | – | – | 14469 | 0.08 | 2000 | 0.02 | 81527 | CC(C)C[C@H](NC(=O)[C@H](Cc1ccccc1)NC(=O)[C@H](CCCNC(=N)N)NC(=O)[C@H](CCC(N)=O)NC(=O)[C@H](CCC(=O)O)NC(=O)[C@H](C)NC(=O)[C@H](C)NC(=O)[C@H](Cc1ccccc1)NC(=O)[C@H](CCC(=O)O)NC(=O)[C@H](CCCCNC(=O)COCCOCCNC(=O)COCCOCCNC(=O)CC[C@H](NC(=O)CCCCCCCCCCCCCCCCCCC(=O)O)C(=O)O)NC(=O)[C@H](CC(C)C)NC(=O)[C@@H](NC(=O)[C@H](CO)NC(=O)[C@@H](NC(=O)[C@H](CC(=O)O)NC(=O)[C@H](CO)NC(=O)[C@@H](NC(=O)[C@H](Cc1ccccc1)NC(=O)[C@@H](NC(=O)CNC(=O)[C@H](CCC(=O)O)NC(=O)C(C)(C)NC(=O)[C@@H](N)Cc1c[nH]cn1)[C@@H](C)O)[C@@H](C)O)C(C)C)[C@@H](C)O)C(=O)N[C@@H](CCC(=O)O)C(=O)N[C@@H](Cc1c[nH]cn1)C(=O)N[C@@H](CC(C)C)C(=O)N[C@H](C(N)=O)C(C)C [compound 89] (H-H[Aib]EGTFTSDVSTLK([AEEA-AEEA-γGlu-C20 diacid])EFAAEQRFLEHLV-NH2)
